This passage reports IC50 results from patent publication US12162878B2 (HINOVA PHARMACEUTICALS INC., priority 2018, dated 2024).

For the first experiment, the system named is CWR22RV1 cells. The experiment can be described thus: Inhibition of proliferation of CWR22RV1 cells (CCK-8). As to conditions: Homo sapiens, 144 h, 6 days. The format is cell-based, human. As to the method:
• CWR22RV1 cell line (Cell Bank of Chinese Academy of Sciences, TCHu100) • FBS (Gibco, Cat. No. 10099-141) • 0.01M PBS (Biosharp, Cat. No. 162262) • RIPM1640 (Hyclone, Cat. No. 308090.01) • Penicillin-Streptomycin (Hyclone, Cat. No. SV30010) • Cell counting kit-8 (Signalway Antibody, Cat. No. CP002) • DMSO (Sigma, Cat. No. D5879) • Centrifuge Tube, 15 ml (Excell Bio, Cat. No. CS015-0001) • Cell Culture Dish, (Excell Bio, Cat. No. CS016-0128) • 96-well cell culture cluster (Corning, Cat. No. 3599) • 2. Experimental method (1) Preparation of Buffer
1) CWR22RV1 cells were subcultured in cell culture medium, and the cells in good growth condition were seeded in a 96-well plate, 80 μL for each well, thus the number of cells per well was 1500, then the plate was cultured overnight in a 37° C., 5% CO2 cell incubator.
2) The drug was prepared with dimethyl sulfoxide (DMSO) as a 30 mM stock solution. Prior to use, the solution was diluted 3 times with DMSO, and then diluted with a 3-fold gradient to obtain 9 concentration gradients. Then, each concentration of the compound was further diluted 200 times with the culture solution (to ensure that DMSO concentration in the culture system was 0.1%), 2 repeat wells for each concentration. The diluted solution of each compound (20 μL) was added to the cell culture well (with a final concentration of 10 μM, 3.3 μM, 1.1 μM . . . ), and shaken gently for mixing. In addition, three negative control wells containing only cells and three blank control wells containing only culture medium (20 μL DMSO diluted 200 times with culture medium being added to six wells) were included.
(1) After culturing for 6 days, 10 μL CCK-8 was added to each well and cultured for additional 2.5 h in a 37° C., 5% CO2 cell incubator.
(2) The absorbance (OD value) at 450 nm was measured with a multifunctional microplate reader.
(3) The data was analyzed by the Dose-response-inhibition equation in the software GraphPad Prism6, and the IC50 value was obtained.
In general, IC50 refers to the concentration needed to halve the response being measured. Read a high IC50 as lower potency. In turn, `Cn1cc(-c2cc(S(C)(=O)=O)ccc2N2CCC3(CC2)CC3C#N)c2cc[nH]c2c1=O` (stereo not shown) [Compound 181, 6-(2-(6-methyl-7-oxo-6,7-dihydro-1H-pyrrolo[2,3-c]pyridin-4-yl)-4-(methylsulfonyl)phenyl)-6-aza-spiro[2.5]octan-1-cyanide] had a concentration for half-maximal inhibition (IC50) of 90 nM. That is a double-digit nanomolar value.

The same experiment, now with this note: Homo sapiens, CWR22Rv1, 144 h, 6 days.
Compound `[2H]C([2H])([2H])n1cc(-c2cc(S(=O)(=O)C3CC3)ccc2N2CC3(CCC3)C2)c2cc[nH]c2c1=O` [Compound 59, 4-(5-(cyclopropylsulfonyl)-2-(2-aza-spiro[3.3]heptan-2-yl)phenyl)-6-trideuteromethyl-1H-pyrrolo[2,3-c]pyridin-7(6H)-one] returned an IC50 of 65 nM.

`CCS(=O)(=O)Nc1ccc(N2CCC3(CC2)COC3)c(-c2cn(C)c(=O)c3[nH]ccc23)c1` [Compound 194, N-(3-(6-methyl-7-oxo-6,7-dihydro-1H-pyrrolo[2,3-c]pyridin-4-yl)-4-(2-oxa-7-aza-spiro[3.5]nonan-7-yl)phenyl)ethanesulfonamide] showed a half-inhibitory concentration (IC50) of 46 nM. This IC50 and that of the compound before are within 1.5-fold of each other. Same read-out and setting: as for `Cn1cc(-c2cc(S(C)(=O)=O)ccc2N2CCC3(CC2)CC3C(N)=O)c2cc[nH]c2c1=O` (stereo not shown) [Compound 180, 6-(2-(6-methyl-7-oxo-6,7-dihydro-1H-pyrrolo[2,3-c]pyridin-4-yl)-4-(methylsulfonyl)phenyl)-6-aza-spiro[2.5]octan-1-formamide], the figure is 460 nM; as for `CCS(=O)(=O)Nc1ccc(N2CC3CC2CO3)c(-c2cn(C)c(=O)c3[nH]ccc23)c1` (stereo not shown) [Compound 190, N-(4-(2-oxa-5-azabicyclo[2.2.1]heptan-5-yl)-3-(methyl-7-oxo-6,7-dihydro-1H-pyrrolo[2,3-c]pyridin-4-yl)phenyl)ethanesulfonamide], 180 nM; as for `[2H]C([2H])([2H])n1cc(-c2cc(S(=O)(=O)CC(=O)O)ccc2N2CCC3(CC2)CC3)c2cc[nH]c2c1=O` [Compound 235, 2-((3-(6-trideuteromethyl-7-oxo-6,7-dihydro-1H-pyrrolo[2,3-c]pyridin-4-yl)-4-(6-aza-spiro[2.5]octan-6-yl)phenyl)sulfonyl)acetic acid], 1.7 nM.

In turn, `[2H]C([2H])([2H])n1cc(-c2cc(NS(=O)(=O)CC)ccc2N2CCC3(CC2)CC3C(=O)OCC)c2cc[nH]c2c1=O` (stereo not shown) [Compound 52] registered an IC50 of 520 nM. For `Cn1cc(-c2cc(S(=O)(=O)C3CC3)ccc2N2CCCC3(CC3)C2)c2cc[nH]c2c1=O` [Compound 28, 4-(5-(cyclopropylsulfonyl)-2-(5-aza-spiro[2.5]octan-5-yl)phenyl)-6-methyl-1H-pyrrolo[2,3-c]pyridin-7(6H)-one], the IC50 came to 36 nM. On the same count and under the same terms, as for `[2H]C([2H])([2H])n1cc(-c2cc(S(=O)(=O)C(C)C)ccc2N2CCC3(CC2)CC3(F)F)c2cc[nH]c2c1=O` [Compound 233, 4-(2-(1,1-difluoro-6-aza-spiro[2.5]octan-6-yl)-5-(isopropylsulfonyl)phenyl)-6-trideuteromethyl-1H-pyrrolo[2,3-c]pyridin-7(6H)-one], the figure is 1.3 nM.

Regarding `Cn1cc(-c2cc(NS(C)(=O)=O)ccc2N2CCC3(CC2)COC3)c2cc[nH]c2c1=O` [Compound 195, N-(3-(6-methyl-7-oxo-6,7-dihydro-1H-pyrrolo[2,3-c]pyridin-4-yl)-4-(2-oxa-7-aza-spiro[3.5]nonan-7-yl)phenyl)methanesulfonamide], the IC50 worked out at 160 nM.

With `Cn1cc(-c2cc(S(C)(=O)=O)ccc2N2CCCC2CCl)c2cc[nH]c2c1=O` (stereo not shown) [Compound 249, 4-(2-(2-(chloromethyl)pyrrolidin-1-yl)-5-(methanesulfonyl)phenyl)-6-methyl-1H-pyrrolo[2,3-c]pyridin-7(6H)-one], 130 nM corresponded to half-maximal inhibition (IC50). The same measure, in the same setting: as for `[2H]C([2H])([2H])n1cc(-c2cc(S(C)(=O)=O)c(F)cc2N2CCC3(CC2)CC3)c2cc[nH]c2c1=O` [Compound 238, 4-(4-fluoro-5-(methanesulfonyl)-2-(6-aza-spiro[2.5]octan-6-yl)phenyl)-6-trideuteromethyl-1H-pyrrolo[2,3-c]pyridin-7(6H)-one], the figure is 8 nM; as for `[2H]C([2H])([2H])n1cc(-c2cc(S(C)(=O)=O)ccc2N2CCC3(CC3)C2)c2cc[nH]c2c1=O` [Compound 54, 6-trideuteromethyl-4-(5(methylsulfonyl)-2-(5-aza-spiro[2.4]heptan-5-yl)phenyl)-1H-pyrrolo[2,3-c]pyridin-7(6H)-one], 18 nM. On the same count and under the same terms, as for `CCS(=O)(=O)Nc1ccc(N2CC3(CCC3)C2)c(-c2cn(C)c(=O)c3[nH]ccc23)c1` [Compound 14, N-(3-(6-methyl-7-oxo-6,7-dihydro-1H-pyrrolo[2,3-c]pyridin-4-yl)-4-(2-aza-spiro[3.3]heptan-2-yl)phenyl)ethanesulfonamide], the figure is 31 nM; as for `CCCCS(=O)(=O)Nc1ccc(N2CC3(CCC3)C2)c(-c2cn(C)c(=O)c3[nH]ccc23)c1` [Compound 13, N-(3-(6-methyl-7-oxo-6,7-dihydro-1H-pyrrolo[2,3-c]pyridin-4-yl)-4-(2-aza-spiro[3.3]heptan-2-yl)phenyl)butane-1-sulfonamide], 79 nM.

As to `[2H]C([2H])([2H])n1cc(-c2cc(S(=O)(=O)NCCO)ccc2N2CCC3(CC2)CC3)c2cc[nH]c2c1=O` [Compound 205, N-(2-hydroxyethyl)-3-(6-trideuteromethyl-7-oxo-6,7-dihydro-1H-pyrrolo[2,3-c]pyridin-4-yl)-4-(6-aza-spiro[2.5]octan-6-yl)benzenesulfonamide], the IC50 was determined as 4.8 nM. Turning to `[2H]C([2H])([2H])n1cc(-c2cc(S(=O)(=O)CC)cnc2N2CCC3(CC2)CC3)c2cc[nH]c2c1=O` [Compound 186, 4-(5(ethylsulfonyl)-2-(6-aza-spiro[2.5]octan-6-yl)pyridin-3-yl)-6-trideuteromethyl-1H-pyrrolo[2,3-c]pyridin-7(6H)-one], 21 nM corresponded to half-maximal inhibition (IC50). This IC50 is about 4.4-fold higher than that of the compound before. The same measure, in the same setting: as for `[2H]C([2H])([2H])n1cc(-c2cc(S(=O)(=O)CC)ccc2N2CC3(CCC3)C2)c2cc[nH]c2c1=O` [Compound 63, 4-(5-(ethylsulfonyl)-2-(2-aza-spiro[3.3]heptan-2-yl)phenyl)-6-trideuteromethyl-1H-pyrrolo[2,3-c]pyridin-7(6H)-one], the figure is 60 nM; as for `[2H]C([2H])([2H])n1cc(-c2cc(NS(=O)(=O)C3CC3)ccc2N2CC3(CCC3)C2)c2cc[nH]c2c1=O` [Compound 43, N-(3-(6-trideuteromethyl-7-oxo-6,7-dihydro-1H-pyrrolo[2,3-c]pyridin-4-yl)-4-(2-aza-spiro[3.3]heptan-2-yl)phenyl)cyclopropanesulfonamide], 50 nM. For `[2H]C([2H])([2H])n1cc(-c2cc(S(=O)(=O)CCCC)ccc2N2CC3(CCC3)C2)c2cc[nH]c2c1=O` [Compound 62], it took 130 nM to reach half-maximal inhibition (IC50).

`[2H]C([2H])([2H])n1cc(-c2cc(S(C)(=O)=O)c(N3CCC4(CC3)CC4)cc2F)c2cc[nH]c2c1=O` [Compound 237, 4-(2-fluoro-5-(methanesulfonyl)-4-(6-aza-spiro[2.5]octan-6-yl)phenyl)-6-trideuteromethyl-1H-pyrrolo[2,3-c]pyridin-7(6H)-one]: the concentration for half-maximal inhibition (IC50) was 4.2 nM. On the same count and under the same terms, to `CCS(=O)(=O)Nc1ccc(N2CCC3(CC2)CC3C(=O)O)c(-c2cn(C)c(=O)c3[nH]ccc23)c1` (stereo not shown) [Compound 20, 6-(4-(ethylsulfonamide)-2-(6-methyl-7-oxo-6,7-dihydro-1H-pyrrolo[2,3-c]pyridin-4-yl)phenyl)-6-aza-spiro[2.5]octan-1-carboxylic acid] belongs 550 nM.
